# Laboratory results as given in ChEMBL document CHEMBL1201862, “PubChem BioAssay data set” (2004).
#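 A five-concentration, 48-hour dose response in 96-well plates underlies each endpoint, interpolated linearly between surrounding concentrations. Here, GI50 denotes the concentration required for 50% inhibition of growth.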 The source made the active and inactive calls. No stated cut-off is given here; in the data, active = GI50 up to about 1.1 µM and inactive = higher.
# Key:
# Assay in all cases: NCI tumour cell line growth inhibition, 48 h
# [1] = test system: HL-60
# [2] = test system: M19-MEL
# [3] = test system: SN12C
# [4] = test system: COLO 205
# [5] = test system: OVCAR-3
# [6] = test system: XF498
# [7] = test system: HCT-15
# [8] = test system: MOLT-4
# [9] = test system: NCI-H226
# [10] = test system: DMS-114
# [11] = test system: SK-MEL-28
# [12] = test system: NCI-H23
# [13] = test system: SNB-19
# [14] = test system: U-251
# [15] = test system: HCT-116
# [16] = test system: SF-539
# [17] = test system: Malme-3M
# [18] = test system: RXF 393
# [19] = test system: SW-620
# [20] = test system: IGROV-1
# [21] = test system: SK-MEL-5
# [22] = test system: UO-31
# [23] = test system: HCC 2998
# [24] = test system: NCI-H522
# [25] = test system: EKVX
# [26] = test system: NCI-H460
# [27] = test system: K562
# [28] = test system: SNB-75
# [29] = test system: SK-OV-3
# [30] = test system: HOP-92
# [31] = test system: MCF7
# [32] = test system: UACC-62
# [33] = test system: SK-MEL-2
# [34] = test system: SF-295
# [35] = test system: KM12
# [36] = test system: OVCAR-5
# [37] = test system: SNB-78
# [38] = test system: SF-268
# [39] = test system: CCRF-CEM
# [40] = test system: LOX IMVI
# [41] = test system: A549
# [42] = test system: HT-29
# [43] = test system: NCI/ADR-RES
# [44] = test system: OVCAR-8
# [45] = test system: HOP-18
# [46] = test system: UACC-257
# [47] = test system: HOP-62
# [48] = test system: A498
# [49] = test system: CAKI-1
# [50] = test system: KM-20L2
# [51] = test system: DLD-1
# [52] = test system: OVCAR-4
# [53] = test system: RPMI-8226
# [54] = test system: DMS-273
# [55] = test system: ACHN
# [56] = test system: 786-0
# [57] = test system: M14
# [58] = test system: SR
# [59] = test system: LXFL 529
# [60] = test system: TK-10
smiles,measurement,setting,value
Cc1c2c(cc3c1[nH]c1ccccc13)C(c1ccc(F)cc1)=NCC2,GI50,[1],0.358 µM (active)
same,GI50,[2],1.21 µM (inactive)
same,GI50,[3],1.63 µM (inactive)
same,GI50,[4],0.679 µM (active)
same,GI50,[5],0.993 µM (active)
same,GI50,[6],1.67 µM (inactive)
same,GI50,[7],0.904 µM
same,GI50,[8],1 µM (active)
same,GI50,[9],1.43 µM (inactive)
same,GI50,[10],0.746 µM (active)
same,GI50,[11],1.48 µM (inactive)
same,GI50,[12],1.15 µM (inactive)
same,GI50,[13],1.41 µM (inactive)
same,GI50,[14],1.43 µM (inactive)
same,GI50,[15],0.752 µM (active)
same,GI50,[16],1.13 µM (inactive)
same,GI50,[17],1.68 µM (inactive)
same,GI50,[18],1.42 µM (inactive)
same,GI50,[19],0.665 µM (active)
same,GI50,[20],0.855 µM (active)
same,GI50,[21],1.72 µM (inactive)
same,GI50,[22],1.08 µM (active)
same,GI50,[23],1.04 µM (active)
same,GI50,[24],1.08 µM (active)
same,GI50,[25],2.07 µM (inactive)
same,GI50,[26],0.815 µM (active)
same,GI50,[27],0.379 µM (active)
same,GI50,[28],1.24 µM (inactive)
same,GI50,[29],1.37 µM (inactive)
same,GI50,[30],1.44 µM (inactive)
same,GI50,[31],1.09 µM (active)
same,GI50,[32],0.935 µM (active)
same,GI50,[33],1.21 µM (inactive)
same,GI50,[34],0.869 µM (active)
same,GI50,[35],0.869 µM (active)
same,GI50,[36],1.74 µM (inactive)
same,GI50,[37],1.81 µM (inactive)
same,GI50,[38],2.18 µM (inactive)
same,GI50,[39],1.14 µM (inactive)
same,GI50,[40],0.509 µM (active)
same,GI50,[41],1.48 µM (inactive)
same,GI50,[42],1.17 µM (inactive)
same,GI50,[43],774 nM (active)
same,GI50,[44],1.81 µM (inactive)
same,GI50,[45],2.88 µM (inactive)
same,GI50,[46],1.03 µM (active)
same,GI50,[47],2.05 µM (inactive)
same,GI50,[48],1.37 µM (inactive)
same,GI50,[49],796 nM (active)
same,GI50,[50],1.11 µM (active)
same,GI50,[51],0.851 µM (active)
same,GI50,[52],0.703 µM (active)
same,GI50,[53],0.935 µM (active)
same,GI50,[54],0.63 µM (active)
CC(=O)O[C@]12CCCCCCC1C1(O)C(O)CCC[C@H]12 (stereo partly specified),GI50,[1],> 10 µM (inactive)
same,GI50,[2],> 100 µM (inactive)
same,GI50,[55],> 100 µM (inactive)
same,GI50,[3],> 100 µM (inactive)
same,GI50,[4],> 100 µM (inactive)
same,GI50,[6],> 100 µM (inactive)
same,GI50,[7],> 100 µM
same,GI50,[8],> 100 µM (inactive)
same,GI50,[9],> 100 µM (inactive)
same,GI50,[56],> 100 µM (inactive)
same,GI50,[10],> 100 µM (inactive)
same,GI50,[57],> 100 µM (inactive)
same,GI50,[11],> 100 µM (inactive)
same,GI50,[12],> 100 µM (inactive)
same,GI50,[13],> 100 µM (inactive)
same,GI50,[14],> 100 µM (inactive)
same,GI50,[15],> 100 µM (inactive)
same,GI50,[17],> 100 µM (inactive)
same,GI50,[18],> 100 µM (inactive)
same,GI50,[19],> 100 µM (inactive)
same,GI50,[21],> 100 µM (inactive)
same,GI50,[22],> 100 µM (inactive)
same,GI50,[24],> 100 µM (inactive)
same,GI50,[25],> 100 µM (inactive)
same,GI50,[26],> 100 µM (inactive)
same,GI50,[27],> 100 µM (inactive)
same,GI50,[28],> 100 µM (inactive)
same,GI50,[29],> 100 µM (inactive)
same,GI50,[58],> 100 µM (inactive)
same,GI50,[32],> 100 µM (inactive)
same,GI50,[33],> 100 µM (inactive)
same,GI50,[34],> 100 µM (inactive)
same,GI50,[35],> 100 µM (inactive)
same,GI50,[37],> 100 µM (inactive)
same,GI50,[38],> 100 µM (inactive)
same,GI50,[39],> 100 µM (inactive)
same,GI50,[40],> 100 µM (inactive)
same,GI50,[41],> 100 µM (inactive)
same,GI50,[42],> 100 µM (inactive)
same,GI50,[44],> 100 µM (inactive)
same,GI50,[45],> 100 µM (inactive)
same,GI50,[46],> 100 µM (inactive)
same,GI50,[47],> 100 µM (inactive)
same,GI50,[59],> 100 µM (inactive)
same,GI50,[50],> 100 µM (inactive)
same,GI50,[52],> 100 µM (inactive)
same,GI50,[53],> 100 µM (inactive)
same,GI50,[60],> 100 µM (inactive)
same,GI50,[54],> 100 µM (inactive)
CCOC(C)OC1CC(n2cc(C)c(=O)[nH]c2=O)OC1CO (stereo unspecified),GI50,[1],> 100 µM (inactive)
same,GI50,[2],> 100 µM (inactive)
same,GI50,[55],> 100 µM (inactive)
same,GI50,[3],> 100 µM (inactive)
same,GI50,[4],> 100 µM (inactive)
same,GI50,[5],> 100 µM (inactive)
same,GI50,[6],> 100 µM (inactive)
same,GI50,[7],> 100 µM
same,GI50,[8],> 100 µM (inactive)
same,GI50,[9],> 100 µM (inactive)
same,GI50,[10],> 100 µM (inactive)
same,GI50,[57],> 100 µM (inactive)
same,GI50,[11],> 100 µM (inactive)
same,GI50,[12],> 100 µM (inactive)
same,GI50,[13],> 100 µM (inactive)
same,GI50,[14],> 100 µM (inactive)
same,GI50,[15],> 100 µM (inactive)
same,GI50,[16],> 100 µM (inactive)
same,GI50,[17],> 100 µM (inactive)
same,GI50,[18],> 100 µM (inactive)
same,GI50,[19],> 100 µM (inactive)
same,GI50,[20],> 100 µM (inactive)
same,GI50,[22],> 100 µM (inactive)
same,GI50,[23],> 100 µM (inactive)
same,GI50,[24],> 100 µM (inactive)
same,GI50,[25],> 100 µM (inactive)
same,GI50,[26],> 100 µM (inactive)
same,GI50,[27],> 100 µM (inactive)
same,GI50,[29],> 100 µM (inactive)
same,GI50,[30],> 100 µM (inactive)
same,GI50,[58],> 100 µM (inactive)
same,GI50,[33],> 100 µM (inactive)
same,GI50,[34],> 100 µM (inactive)
same,GI50,[35],> 100 µM (inactive)
same,GI50,[36],> 100 µM (inactive)
same,GI50,[37],> 100 µM (inactive)
same,GI50,[38],> 100 µM (inactive)
same,GI50,[39],82.6 µM (inactive)
same,GI50,[40],> 100 µM (inactive)
same,GI50,[41],> 100 µM (inactive)
same,GI50,[42],> 100 µM (inactive)
same,GI50,[44],> 100 µM (inactive)
same,GI50,[45],> 100 µM (inactive)
same,GI50,[46],> 100 µM (inactive)
same,GI50,[47],> 100 µM (inactive)
same,GI50,[48],> 100 µM (inactive)
same,GI50,[59],> 100 µM (inactive)
same,GI50,[50],> 100 µM (inactive)
same,GI50,[51],> 100 µM (inactive)
same,GI50,[52],> 100 µM (inactive)
same,GI50,[53],> 100 µM (inactive)
same,GI50,[60],> 100 µM (inactive)
same,GI50,[54],> 100 µM (inactive)
